# Reference: patent publication US10842776B2, “Hycanthone derivatives and Primaquine derivatives for use in the prevention and/or the treatment of disorders associated to gammaherpesvirus” (priority 2016, dated 2020)
# Counter-ions that a name gives are not always drawn.
# Experiments:
# [1] = test system: caspase 3/7 activity in BC-3 cells; experiment: Induction of caspase 3/7 activity (apoptosis); assay type: cell-based, human; settings: 10 μM, 24 h
# Experimental: Apoptosis induction was evaluated 24 h after the treatment started by measuring caspase 3/7 activity in treated- or untreated control BC-3 cells. […] DDTC is used as a positive inducer of caspase 3/7 activity in BC-3 cell lines (Matsuno et al., 2012, Int J Oncol 40: 1071-1078).
# BC-3 cells (10000 cells/well) were incubated 24 h with a concentration of 10 μM of Primaquine diphosphate (Sigma), Hycanthone (Sigma), or Diethyldithiocarbamate (DDTC) (Sigma), and then lysed and a 3/7 Reagent (DEVD) is added. Lysed cells release caspase-3 or -7, which cleave the DEVD substrate from the aminoluciferin. Finally, the oxidation of the luciferin by luciferase produces light, which is measured by a luminometer. The amount of light produced is proportional to the amount of caspase-3 or -7 activity. […] (DDTC) (Sigma) known to induce apoptosis in BC-3 cells via the inhibition of NF-κB is used as positive control.
# [2] = test system: phosphorylation of IκB (NF-κB pathway) in BC-3 PEL cell line; experiment: IκB phosphorylation, western blot; assay type: cell-based, human; settings: 10 μM, pre-treated for 6 and 12 h, BC-3 cells
# Experimental: BC-3 cells were pre-treated for 6 h (A) and 12 h (B) with primaquine and hycanthone at 10 μM. DDTC was used as positive control. Whole-cell lysates were prepared as described in Materials and Methods of example F and used for p-IκB western blot analysis by using the appropriate antibodies. […] Treatment of BC-3 cells with DDTC (diethyldithiocarbamate) was carried out in the same conditions and served as a positive control.
# BC-3, an HHV-8 positive lymphoblastic cell line (ATCC CRL-2277) and RAMOS, an human Burkitt's lymphoma cell line (ATCC CRL-1596), were routinely maintained in RPMI 1640 medium supplemented with 10% fetal heat-inactivated bovine serum (FBS), and antibiotics (Sigma Chemical Co., St. Louis, Mo.) in a 5% CO2 incubator at 37° C. To prepare whole cell extracts, the cells were washed with cold phosphate-buffered saline twice and lysed in lysis RIPA buffer containing 10 mM Tris-HCl, pH 8.0, 140 mM NaCl, 1% Triton X-100, 1 mM EDTA, 0.5 mM EGTA, 0.1% sodium deoxycholate, 0.1% SDS, supplemented with protease inhibitor mixture (1 mM PMSF, 10 mM β-glycerophosphate, 10 mM NaF, 1 mM sodium orthovanadate, 1 mM sodium pyrophosphate), (ThermoFisher Scientific) at 4° C. for 30 min. […] The supernatants were collected as whole cell extracts, and protein concentration was determined by the Lowry method. […]
# [3] = test system: MRC-5, primary cutaneous fibroblasts, primary keratinocytes, Hela P4; settings: human, 48 h, 10 μM
# Experimental: (§1) HHV8 infected cell line (BC3), HHV8-non infected cell lines (MRC5, HeLa P4), and HHV8 non infected primary cells (human keratinocytes, human cutaneous fibroblasts, B-type lymphocytes CD19+) were grown in vitro and treated by either Primaquine diphosphate, Hycanthone, Paclitaxel or Doxorubicin hydrochloride at a concentration of 10 μM. Cell viability was evaluated by ATP quantitation 48 h after the treatment started.
# (§2) The effect of Primaquine diphosphate (Sigma), Hycanthone (Sigma), Paclitaxel (Sigma), and Doxorubicin (Sigma) were evaluated on relevant primary cells and cell lines that are or not infected by HHV-8.
# • BC-3: cell line established from pleural effusion from a human immunodeficiency virus (HIV) negative patient diagnosed with primary effusion lymphoma (PEL). BC-3 cell line is HHV8 infected but not infected for Epstein-Barr virus (EBV) as well as for herpes simplex virus 1 &2 (HSV-1 & HSV-2) and cytomegalovirus (CMV) (ATCC), • MRC5: Cell line derived from normal lung tissue of a […] fetus (ATCC), • Primary cutaneous fibroblasts (Lonza ref CC 25 11), • Primary keratinocytes (Lonza ref 00 192 627), • HeLa: immortal cell line established from an adult human cervical cancer HVP-18 infected (NIH Reagent program), • Primary B-type lymphocytes CD19+: primary B cells positively selected using CD19 microbeads (Miltenyi).
# (§3) Cells were treated in vitro with either Primaquine diphosphate (Sigma), Hycanthone (Sigma), Paclitaxel (Sigma), or Doxorubicin hydrochloride (Sigma) at a concentration of 10 μM. The viability of the cells was evaluated 48 h after the treatment started as previously described with the Kit CellTiter Glo (Promega).
# [4] = test system: BC-3 cells; experiment: Cell growth inhibition; assay type: cell-based, human; settings: 10 μM, D0 to D3, versus BC3 cells cultured in standard conditions
# Experimental: Cell growth was measured every day from the day of treatment (DO) until 3 days after the treatment started (D3).
# BC-3 cells were grown in RPMI-1640 GlutaMAX (Gibco) supplemented with 10% fetal bovine serum and antibiotics (amikacine and vancomycine) during 3 days. The number of cells per milliliter is measured at baseline, DO, D2 and D3. BC-3 were cultured with and without primaquine and Hycanthone.
# [5] = test system: BC-3 cells (HHV8 infected PEL cell line); experiment: Cell viability (ATP quantitation, CellTiter Glo) of HHV8-infected cells; assay type: cell-based, human; settings: 10 μM, 48 h, HHV8 infected BC-3 cells
# Experimental: as §1, §2
# • BC-3: cell line established from pleural effusion from a human immunodeficiency virus (HIV) negative patient diagnosed with primary effusion lymphoma (PEL). […]
# as §3
# [6] = test system: BC-3 xenograft (PEL); experiment: Primary Effusion Lymphoma xenograft model in immunodeficient NOD/SCID mice; assay type: in vivo
# Experimental: (§4) Primaquine efficacy was evaluated using a mice model of immunodeficient NOD/SCID mice. […] Mice weight was measured at various times (D6, D13, D20 and D24) after the treatment started.
# Note the large growth tumor in the abdomen of the mouse that received BC-3 xenograft (“BC-3”) but not treated by primaquine.
# At baseline, mice are inoculated with a PEL cell line (BC-3) by intraperitoneal (i.p) injection. One day after injection of BC-3 cells, Primaquine is administered by intraperitoneal injection, and then 3 times a week during 8 weeks. Tumoral burden is evaluated by the measure of weight every weeks (References: T. Matsuno, 2012: Diethyldithiocarbamate induces apoptosis in HHV-8-infected primary effusion lymphoma cells via inhibition of the NF-κB pathway; K. A. Sarosiek, 2010: Efficacy of bortezomib in a direct xenograft model of primary effusion lymphoma; W. Wu, 2005: Inhibition of HHV-8/KSHV infected primary effusion lymphomas in NOD/SCID mice by azidothymidine and interferon).
# The experiment was conducted on 24 NOD/SCID mice (4 groups of 6 mice) (Charles River laboratories): 1 group (Mock) without xenograft (no BC-3) and non-treated (no Primaquine), 1 group with xenograft (BC-3) and non-treated (no Primaquine), 1 group with xenograft (BC-3) and treated (Primaquine 12.5 mg/kg; (Sigma), 1 group without xenograft and treated (Primaquine 12.5 mg/kg; (Sigma). […]
# [7] = Toxicity of Primaquine in NOD/SCID mice; assay type: in vivo; settings: 12.5 mg/kg, after 24 days of treatment
# Experimental: as §4
# The experiment was conducted on 24 NOD/SCID mice (4 groups of 6 mice) (Charles River laboratories): 1 group (Mock) without xenograft (no BC-3) and non-treated (no Primaquine), 1 group with xenograft (BC-3) and non-treated (no Primaquine), 1 group with xenograft (BC-3) and treated (Primaquine 12.5 mg/kg; (Sigma), 1 group without xenograft and treated (Primaquine 12.5 mg/kg; (Sigma).
# At the beginning of the experiments, the mice were 6 weeks old according to previous experiments conducted and available in the literature. Animals had 7 to 10 days of acclimatization before experiment. At baseline, 20.10^6 of BC3 cells in 500 μL of PBS were injected by i.p. in order to induce the development of PEL. Tumor growth is correlated with the total gain of weight. The consequent gain of weight should not exceed 150% of the baseline weight. For the group of mice […] by Primaquine, each mice received 1 i.p injection of 500 μL of PBS instead of BC-3 cells in order to evaluate the toxicity of Primaquine in mice.
SMILES,apoptosis (caspases 3/7 activation) versus non-treated control [1],phosphorylation of IκB [2],toxicity (cell death) in other cell types non infected by HHV8 [3],cellular growth of BC3 [4],cell death in BC-3 cells [5],"reduction of the median gain of weight ([6]; 12.5 mg/kg i.p. 3 times a week, D24, versus untreated mice with BC-3 xenograft)","growth tumor in the abdomen ([6]; 12.5 mg/kg, after 24 days of treatment, picture versus untreated BC-3 mouse)",toxicity in mice [7]
"CCN(CC)C(=S)S [DDTC, Diethyldithiocarbamate]",4 times,,,,,,,
CCN(CC)CCNc1ccc(CO)c2sc3ccccc3c(=O)c12 [Hycanthone],at least as equivalent of that induced by DDTC,dramatically reduced,< 20%,inhibited cellular growth,,,,
CC(=O)O[C@H]1C(=O)[C@@]2(C)[C@H]([C@H](OC(=O)c3ccccc3)[C@]3(O)C[C@H](OC(=O)[C@H](O)[C@@H](NC(=O)c4ccccc4)c4ccccc4)C(C)=C1C3(C)C)[C@]1(OC(C)=O)CO[C@@H]1C[C@@H]2O [Paclitaxel],,,> 20%,,induced cell death,,,
"COc1cccc2c1C(=O)c1c(O)c3c(c(O)c1C2=O)C[C@@](O)(C(=O)CO)C[C@@H]3O[C@H]1C[C@H](N)[C@H](O)[C@H](C)O1 [doxorubicin, Doxorubicin hydrochloride]",,,> 20%,,induced cell death,,,
"COc1cc(NC(C)CCCN)c2ncccc2c1 (stereo not drawn) [Primaquine diphosphate, Primaquine]",at least as equivalent of that induced by DDTC,dramatically reduced,,inhibited cellular growth,,39.4%,reduced growth tumor,did not show any toxicity
